Test results: publication PMC9227918 (Toxins, 2022)

Experiments:
Type in all cases: in vitro ADME
[1] = Hepatic phase II metabolism (glucuronidation), horse liver microsomes with UDPGA; conditions: UDPGA 0.3 mM, 0.02 mg/mL PSD, 90 min, HPLC-Orbitrap-HRMS
[2] = Hepatic phase II metabolism (glucuronidation), human liver microsomes with UDPGA
[3] = Hepatic phase II metabolism (sulfation), horse liver cytosol with PAPS; conditions: horse cytosol compared with human cytosol (Figure 7b)
[4] = Hepatic phase I metabolism, incubation with human liver microsomes and NADPH-regenerating system; conditions: for main pI metabolite: human liver microsomes 5 mg/mL, 0.04 mg/mL PSD, 90 min, 37 °C, HPLC-DAD-Orbitrap-HRMS
[5] = Hepatic phase I metabolism, incubation with horse liver microsomes and NADPH-regenerating system; conditions: for identified pI metabolites: horse liver microsomes 5 mg/mL, 0.04 mg/mL PSD, 90 min, 37 °C, HPLC-Orbitrap-HRMS; for extent of pI transformation / metabolite formation: horse microsomes compared with human microsomes
[6] = Hepatic phase II metabolism (sulfation), human liver cytosol with PAPS; conditions: HPLC-QTOF-HRMS

SMILES	identified pI metabolites [5]	main pI metabolite [4]	extent of pI transformation / metabolite formation [5]	other results
CC(=O)O[C@@H]1[C@H](OC(C)=O)C[C@@]2(C)[C@@H](CC[C@@H](C)[C@]23Cc2c(OC4O[C@H](C(=O)O)[C@@H](O)[C@H](O)[C@H]4O)cc(CO)c(C=O)c2O3)C1(C)C (stereo partly shown) [STBON D +GlcA]	–	–	–	glucuronide (+GlcA) formation [1]: identified; glucuronide (+GlcA) formation ([2]; human microsomes, UDPGA 0.3 mM, 0.02 mg/mL PSD, 90 min, HPLC-Orbitrap-HRMS): identified
C[C@@H]1CC[C@H]2C(C)(C)[C@H](O)CC[C@]2(C)[C@@]12Cc1c(O)cc(CO)c(C=O)c1O2 [L-671, L-671,667]	L-671 [+O2–H2] could not be detected	–	–	conversion in sulfation experiments [3]: Opposite observations; variation in potential pI metabolites ([4]; HPLC-Orbitrap-HRMS experiments, compared among the four PSDs): largest variation in potential pI metabolites; abundance of sulfate signals among the PSDs [6]: most abundant sulfate signals; number of signals in the XIC of the sulfate (isomers) [6]: two signals
C[C@@H]1CC[C@H]2C(C)(C)[C@H](O)CC[C@]2(C)[C@@]12Cc1c(O)cc(C=O)c(C=O)c1O2 [STDIAL, stachybotrydial]	all but the desaturated metabolites were formed	STDIAL [+O–H4]	comparable to human microsomes	–
CC(=O)O[C@@H]1[C@H](OC(C)=O)C[C@@]2(C)[C@@H](CC[C@@H](C)[C@]23Cc2c(O)cc(CO)c(C=O)c2O3)C1(C)C [STBON D, stachybonoid D]	only the metabolites STBON D [+O–H2] and STBON D [+O] were identified	oxidized metabolites ([+O])	–	conversion in glucuronidation experiments ([2]; human microsomes compared with horse microsomes, 90 min (Figure 7a)): higher signals for STBON D +GlcA and lower signals of the respective parental compound
C[C@@H]1CC[C@H]2C(C)(C)[C@H](O)CC[C@]2(C)[C@@]12Cc1c(O)cc3c(c1O2)CNC3=O [STLAC, stachybotrylactam]	all but the desaturated metabolites were formed	oxidized metabolites ([+O])	comparable to human microsomes	–
